Patent US20050282159A1, “Rpob gene of streptomyces, primer specific to streptomyces, and identification method of streptomyces having rifampin resistance or sensitivity by using the same” (priority 2001, published 2005)

Tests used:
Assay in all cases: rifampin-sensitive test on Bennet solid media
Format in all cases: cell-based
Design in all cases: key: “(+)” indicates a genotype with rifampin-resistance; “(−)” indicates a genotype with rifampin-susceptibility
[1] = system: S. carpinensis KCTC 9128; conditions: TCG (TCC) genotype, 25 ug/ml rifampin, 72 hr
Description: (§1) The 47 strains were respectively cultured at 28° C. for 72 hr in Bennet liquid media. The culture solution was then inoculated on Bennet solid media (yeast extract 1 g/L, Beef extract 1 g/L, Tryptone 2 g/L, Glycerol 10 g/L, Agar 15 g/L) containing 25 ug/ml rifampin, and after incubation for 72 hr, rifampin-resistance was tested.

[2] = system: S. alanosinicus KCTC 9683; conditions: AAC genotype, 25 ug/ml rifampin, 72 hr
Description: as §1

[3] = system: S. achromogenes KCTC 1740; conditions: TCG (TCC) genotype, 25 ug/ml rifampin, 72 hr
Description: as §1

[4] = system: S. armeniacus KCTC 9120; conditions: AAC genotype, 25 ug/ml rifampin, 72 hr
Description: as §1

[5] = system: S. echinoruber KCTC 9725; conditions: AAC genotype, 25 ug/ml rifampin, 72 hr
Description: as §1

[6] = system: S. aminophilus KCTC 9673; conditions: AAC genotype, 25 ug/ml rifampin, 72 hr
Description: as §1

[7] = system: S. galilaeus KCTC 1919; conditions: AAC genotype, 25 ug/ml rifampin, 72 hr
Description: as §1

[8] = system: S. ederensis KCTC 9726; conditions: AAC genotype, 25 ug/ml rifampin, 72 hr
Description: as §1

[9] = system: S. chartreuses KCTC 9704; conditions: TCG (TCC) genotype, 25 ug/ml rifampin, 72 hr
Description: as §1

[10] = system: S. capillispiralis KCTC 1719; conditions: AAC genotype, 25 ug/ml rifampin, 72 hr
Description: as §1

[11] = system: S. phaeochromogenes KCTC 9763; conditions: AAC genotype, 25 ug/ml rifampin, 72 hr
Description: as §1

[12] = system: S. cuspidosporus KCTC 9718; conditions: AAC genotype, 25 ug/ml rifampin, 72 hr
Description: as §1

[13] = system: S. alboniger KCTC 9014; conditions: TCG (TCC) genotype, 25 ug/ml rifampin, 72 hr
Description: as §1

[14] = system: S. cacoi asoensis KCTC 9700; conditions: TCG (TCC) genotype, 25 ug/ml rifampin, 72 hr
Description: as §1

[15] = system: S. almquistii KCTC 9751; conditions: TCG (TCC) genotype, 25 ug/ml rifampin, 72 hr
Description: as §1

[16] = system: S. bikiniensis KCTC 9172; conditions: TCG (TCC) genotype, 25 ug/ml rifampin, 72 hr
Description: as §1

[17] = system: S. flavofuscus KCTC 9737; conditions: AAC genotype, 25 ug/ml rifampin, 72 hr
Description: as §1

[18] = system: S. avidinii KCTC 9757; conditions: AAC genotype, 25 ug/ml rifampin, 72 hr
Description: as §1

[19] = system: S. sclerotialus KCTC 9065; conditions: AAC genotype, 25 ug/ml rifampin, 72 hr
Description: as §1

[20] = system: S. flaveolus KCTC 9022; conditions: AAC genotype, 25 ug/ml rifampin, 72 hr
Description: as §1

[21] = system: S. pulveraceus KCTC 9766; conditions: AAC genotype, 25 ug/ml rifampin, 72 hr
Description: as §1

[22] = system: S. coelicolor KCTC 9005; conditions: AAC genotype, 25 ug/ml rifampin, 72 hr
Description: as §1

[23] = system: S. chattanoogensis KCTC 1087; conditions: TCG (TCC) genotype, 25 ug/ml rifampin, 72 hr
Description: as §1

[24] = system: S. acrimycini KCTC 9679; conditions: AAC genotype, 25 ug/ml rifampin, 72 hr
Description: as §1

[25] = system: S. bacillaris KCTC 9018; conditions: TCG (TCC) genotype, 25 ug/ml rifampin, 72 hr
Description: as §1

[26] = system: S. albulus KCTC 9668; conditions: TCG (TCC) genotype, 25 ug/ml rifampin, 72 hr
Description: as §1

[27] = system: S. cinereoruber KCTC 9707; conditions: TCG (TCC) genotype, 25 ug/ml rifampin, 72 hr
Description: as §1

Q: Which results are given for CO[C@H]1/C=C/O[C@@]2(C)Oc3c(C)c(O)c4c(O)c(c(/C=N/N5CCN(C)CC5)c(O)c4c3C2=O)NC(=O)/C(C)=C\C=C\[C@H](C)[C@H](O)[C@@H](C)[C@@H](O)[C@@H](C)[C@H](OC(C)=O)[C@@H]1C [rifampin]?
A: genotype (rifampin-resistance or susceptibility) [1]: −; genotype (rifampin-resistance or susceptibility) [2]: +; genotype (rifampin-resistance or susceptibility) [3]: −; genotype (rifampin-resistance or susceptibility) [4]: +; genotype (rifampin-resistance or susceptibility) [5]: +; genotype (rifampin-resistance or susceptibility) [6]: +; genotype (rifampin-resistance or susceptibility) [7]: +; genotype (rifampin-resistance or susceptibility) [8]: +; genotype (rifampin-resistance or susceptibility) [9]: −; genotype (rifampin-resistance or susceptibility) [10]: +; genotype (rifampin-resistance or susceptibility) [11]: +; genotype (rifampin-resistance or susceptibility) [12]: +; genotype (rifampin-resistance or susceptibility) [13]: −; genotype (rifampin-resistance or susceptibility) [14]: −; genotype (rifampin-resistance or susceptibility) [15]: −; genotype (rifampin-resistance or susceptibility) [16]: −; genotype (rifampin-resistance or susceptibility) [17]: +; genotype (rifampin-resistance or susceptibility) [18]: +; genotype (rifampin-resistance or susceptibility) [19]: +; genotype (rifampin-resistance or susceptibility) [20]: +; genotype (rifampin-resistance or susceptibility) [21]: +; genotype (rifampin-resistance or susceptibility) [22]: +; genotype (rifampin-resistance or susceptibility) [23]: −; genotype (rifampin-resistance or susceptibility) [24]: +; genotype (rifampin-resistance or susceptibility) [25]: −; genotype (rifampin-resistance or susceptibility) [26]: −; genotype (rifampin-resistance or susceptibility) [27]: −
